Test: Log P by HPLC on reversed phase columns (EEC directive 79/831 Annex V.A8)
Type: physicochemical
Conditions: not given
Experimental: Measurement of Log P values was performed according to EEC directive 79/831 Annex V.A8 by HPLC (High Performance Liquid Chromatography) on reversed phase columns with the following methods: • ^[a]
If more than one Log P value is available within the same method, all the values are given and separated by “+”.
Lambda-max-values were determined using UV-spectra from 200 nm to 400 nm and the peak values of the chromatographic signals.

| Structure (SMILES) | LogP | chromatographic logP |
| --- | --- | --- |
| OC(Cc1ccnc(Cl)c1F)(Cn1cncn1)c1ccccc1 (stereo not drawn) [Example I-49] | 1.84^[a] | – |
| OC(Cc1ccnc(Cl)c1F)(Cn1cncn1)c1ccc(F)cc1F (single isomer, unassigned) [Example I-56] | 2.21^[a] | – |
| OC(Cc1ccnc(Cl)c1)(Cn1cncn1)c1ccc(Oc2ccccc2)cc1 (stereo not drawn) [Example I-24] | 2.57^[a] | – |
| OC(Cc1ccncc1F)(Cn1cncn1)c1ccccc1 (stereo not drawn) [Example I-36] | 1.13^[a] | – |
| OC(Cc1cc(F)ncc1Cl)(Cn1cncn1)c1ccc(Oc2ccccc2)cc1 (stereo not drawn) [Example I-34] | 3.02^[a] | – |
| OC(Cc1cc(F)ncc1Cl)(Cn1cncn1)c1ccc(Oc2ccc(F)cc2F)cc1 (stereo not drawn) [Example I-54] | 3.02^[a] | – |
| OC(Cc1ccncc1F)(Cn1cncn1)c1ccc(Oc2ccccc2)cc1 (stereo not drawn) [Example I-03] | 2.13^[a] | – |
| OC(Cc1cc(F)ncc1Cl)(Cn1cncn1)c1ccc(F)cc1F (stereo not drawn) [Example I-41] | 2.35^[a] | – |
| OC(Cc1ccnc(Cl)c1)(Cn1cncn1)c1ccc(Cl)cc1 (stereo not drawn) [Example I-47] | 1.96^[a] | – |
| OC(Cc1ccnc(Cl)c1F)(Cn1cncn1)c1ccc(F)cc1 (stereo not drawn) [Example I-23] | 1.91^[a] | – |
| OC(Cc1ccncc1Cl)(Cn1cncn1)c1ccc(Oc2ccc(Cl)cc2)cc1 (stereo not drawn) [Example I-06] | 2.90^[a] | – |
| OC(Cc1cc(F)ncc1Cl)(Cn1cncn1)c1ccc(F)cc1 (stereo not drawn) [Example I-15] | 2.12^[a] | – |
| OC(Cc1ccncc1Cl)(Cn1cncn1)c1ccc(F)cc1 (stereo not drawn) [Example I-18] | 1.57^[a] | – |
| OC(Cc1cccnc1Cl)(Cn1cncn1)c1ccc(C(F)(F)F)cc1 (stereo not drawn) [Example I-16] | 2.22^[a] | – |
| OC(Cc1ccnc(Cl)c1)(Cn1cncn1)c1ccc(F)cc1F (stereo not drawn) [Example I-44] | 1.86^[a] | – |
| OC(Cc1ccnc(Cl)c1)(Cn1cncn1)c1ccc(F)cc1 (stereo not drawn) [Example I-05] | 1.69^[a] | – |
| OC(Cc1ccncc1Cl)(Cn1cncn1)c1ccc(Cl)cc1 (stereo not drawn) [Example I-11] | 1.86^[a] | – |
| OC(Cc1ccncc1Cl)(Cn1cncn1)c1ccc(Oc2ccc(F)cc2F)cc1 (stereo not drawn) [Example I-19] | 2.57^[a] | – |
| OC(Cc1cccnc1Cl)(Cn1cncn1)c1cccc(Cl)c1 (stereo not drawn) [Example I-17] | 1.97^[a] | – |
| OC(Cc1ccnc(Cl)c1)(Cn1cncn1)c1ccc(Cl)cc1Cl (stereo not drawn) [Example I-50] | 2.42^[a] | – |
| OC(Cc1ccncc1Cl)(Cn1cncn1)c1ccc(Cl)cc1Cl (stereo not drawn) [Example I-42] | 2.38^[a] | – |

| Structure (SMILES) | LogP | chromatographic logP |
| --- | --- | --- |
| OC(Cc1cccnc1Cl)(Cn1cncn1)c1ccccc1 (stereo not drawn) [Example I-51] | 1.61^[a] | – |
| OC(Cc1ccncc1F)(Cn1cncn1)c1ccc(Cl)cc1 (stereo not drawn) [Example I-31] | 1.54^[a] | – |
| OC(Cc1ccnc(Cl)c1)(Cn1cncn1)c1ccccc1 (stereo not drawn) [Example I-37] | 1.60^[a] | – |
| OC(Cc1ccnc(Cl)c1F)(Cn1cncn1)c1ccc(F)cc1F (stereo not drawn) [Example I-08, 1-(2-chloro-3-fluoro-4-pyridyl)-2-(2,4-difluorophenyl)-3-(1,2,4-triazol-1-yl)propan-2-ol] | – | 2.14 |
| OC(Cc1ccnc(Cl)c1F)(Cn1cncn1)c1ccc(Oc2ccccc2)cc1 (stereo not drawn) [Example I-46] | 2.84^[a] | – |
| COC(Cc1ccnc(Cl)c1F)(Cn1cncn1)c1ccc(F)cc1F (stereo not drawn) [Example I-57] | 2.47^[a] | – |
| OC(Cc1ccncc1Cl)(Cn1cncn1)c1ccc(Oc2ccccc2)cc1 (stereo not drawn) [Example I-01] | 2.46^[a] | – |
| OC(Cc1ccncc1F)(Cn1cncn1)c1ccc(F)cc1 (stereo not drawn) [Example I-13] | 1.26^[a] | – |
| OC(Cc1cccnc1Cl)(Cn1cncn1)c1ccc(Cl)cc1F (stereo not drawn) [Example I-29, 2-(4-chloro-2-fluoro-phenyl)-1-(2-chloro-3-pyridyl)-3-(1,2,4-triazol-1-yl)propan-2-ol] | – | 2.15 |
| OC(Cc1cc(Cl)ncc1F)(Cn1cncn1)c1ccc(F)cc1 (stereo not drawn) [Example I-32] | 1.96^[a] | – |
| CC(C)(C)c1noc(-c2ccc(C(O)(Cc3ccncc3Cl)Cn3cncn3)cc2)n1 (stereo not drawn) [Example I-38] | 2.65^[a] | – |
| OC(Cc1ccncc1F)(Cn1cncn1)c1ccc(Cl)cc1Cl (stereo not drawn) [Example I-53] | 2.00^[a] | – |
| OC(Cc1cccnc1Cl)(Cn1cncn1)c1ccc(Cl)cc1 (stereo not drawn) [Example I-52] | 1.99^[a] | – |
| OC(Cc1cc(Cl)ncc1F)(Cn1cncn1)c1ccc(Cl)cc1 (stereo not drawn) [Example I-40] | 2.27^[a] | – |
| OC(Cc1ccncc1F)(Cn1cncn1)c1ccc(Oc2ccc(F)cc2F)cc1 (stereo not drawn) [Example I-20] | 2.27^[a] | – |
| N#Cc1ccc(C(O)(Cc2cccnc2Cl)Cn2cncn2)cc1 (stereo not drawn) [Example I-35] | 1.47^[a] | – |
| OC(Cc1ccnc(Cl)c1F)(Cn1cncn1)c1ccc(Cl)cc1Cl (stereo not drawn) [Example I-09] | 2.69^[a] | – |
| OC(Cc1ccnc(Cl)c1)(Cn1cncn1)c1ccc(Oc2ccc(F)cc2F)cc1 (stereo not drawn) [Example I-25] | 2.69^[a] | – |
| OC(Cc1ccnc(Cl)c1F)(Cn1cncn1)c1ccccc1Cl (stereo not drawn) [Example I-07] | 2.27^[a] | – |
| OC(Cc1cc(F)ncc1Cl)(Cn1cncn1)c1ccc(Cl)cc1 (stereo not drawn) [Example I-28] | 2.43^[a] | – |

Same assay, conditions: Table 1, formula (I); method [a]: LC-UV, acidic range, 0.1% formic acid in water and acetonitrile

| Structure (SMILES) | LogP |
| --- | --- |
| OC(Cc1ccncc1Cl)(Cn1cncn1)c1ccc(-c2ccccc2)cc1 (stereo not drawn) [Example I-02] | 2.46^[a] |
| OC(Cc1ccncc1F)(Cn1cncn1)c1ccc(-c2ccccc2)cc1 (stereo not drawn) [Example I-04] | 2.13^[a] |
| OC(Cc1cc(Cl)ncc1F)(Cn1cncn1)c1ccc(-c2ccccc2)cc1 (stereo not drawn) [Example I-26] | 2.88^[a] |

Same assay, conditions: Table 2, epoxides of formula (XII); method [a]: LC-UV, acidic range, 0.1% formic acid in water and acetonitrile

| Structure (SMILES) | LogP |
| --- | --- |
| Fc1ccc(C2(Cc3cc(F)ncc3Cl)CO2)cc1 (racemic) [XII-39] | 3.37^[a] |
| Fc1c(CC2(c3ccc(Oc4ccccc4)cc3)CO2)ccnc1Cl (racemic) [XII-48] | 4.20^[a] |
| Clc1cnccc1CC1(c2ccc(-c3ccccc3)cc2)CO1 (stereo not drawn) [XII-28] | 3.85^[a] |
| Fc1cc(CC2(c3ccccc3Cl)CO2)c(Cl)cn1 (racemic) [XII-38] | 3.80^[a] |
| Fc1ccc(Oc2ccc(C3(Cc4ccncc4F)CO3)cc2)c(F)c1 (stereo not drawn) [XII-5] | 3.37^[a] |
| Fc1ccc(C2(Cc3ccnc(Cl)c3)CO2)cc1 (stereo not drawn) [XII-14] | 2.76^[a] |
| Fc1cccc(F)c1C1(Cc2ccncc2Cl)CO1 (stereo not drawn) [XII-66] | 2.50^[a] |
| Fc1ccc(C2(Cc3c(Cl)cncc3Cl)CO2)cc1 (racemic) [XII-56] | 3.58^[a] |
| Fc1ccc(C2(Cc3cc(Cl)ncc3F)CO2)cc1 (stereo not drawn) [XII-16] | 3.15^[a] |
| Fc1ccc(C2(Cc3ccnc(Cl)c3F)CO2)cc1 (racemic) [XII-50] | 3.11^[a] |
| Clc1ccccc1COc1ccc(C2(Cc3ccncc3Cl)CO2)cc1 (racemic) [XII-64] | 4.30^[a] |
| N#Cc1ccc(C2(Cc3cccnc3Cl)CO2)cc1 (stereo not drawn) [XII-26] | 2.35^[a] |
| Fc1cnccc1CC1(c2ccc(Oc3ccccc3)cc2)CO1 (stereo not drawn) [XII-7] | 3.37^[a] |
| Fc1cnccc1CC1(c2ccc(Cl)cc2Cl)CO1 (stereo not drawn) [XII-3] | 3.19^[a] |
| Fc1ccc(C2(Cc3cc(Cl)ncc3F)CO2)c(F)c1 (stereo not drawn) [XII-20] | 3.24^[a] |
| Clc1cncc(Cl)c1CC1(c2ccc(-c3ccccc3)cc2)CO1 (racemic) [XII-53] | 4.89^[a] |
| Clc1cncc(Cl)c1CC1(c2ccccc2)CO1 (racemic) [XII-58] | 3.53^[a] |
| Fc1cc(CC2(c3ccc(Cl)cc3)CO2)c(Cl)cn1 (racemic) [XII-37] | 3.85^[a] |
| Fc1c(CC2(c3ccc(-c4ccccc4)cc3)CO2)ccnc1Cl (racemic) [XII-45] | 4.25^[a] |
| Clc1ccc(C2(Cc3ccnc(Cl)c3)CO2)c(Cl)c1 (stereo not drawn) [XII-10] | 3.85^[a] |
| Fc1ccc(C2(Cc3c(Cl)cncc3Cl)CO2)c(F)c1 (racemic) [XII-55] | 3.68^[a] |
| Fc1cnc(Cl)cc1CC1(c2ccc(Cl)cc2Cl)CO1 (stereo not drawn) [XII-19] | 4.17^[a] |

| Structure (SMILES) | LogP |
| --- | --- |
| Fc1ccc(C2(Cc3ccncc3F)CO2)cc1 (stereo not drawn) [XII-4] | 2.23^[a] |
| FC(F)(F)c1ccc(C2(Cc3cccnc3Cl)CO2)cc1 (stereo not drawn) [XII-25] | 3.46^[a] |
| Fc1cnc(Cl)cc1CC1(c2ccc(Cl)cc2)CO1 (stereo not drawn) [XII-17] | 3.56^[a] |
| CC(C)(C)c1noc(-c2ccc(C3(Cc4ccncc4Cl)CO3)cc2)n1 (stereo not drawn) [XII-65] | 4.25^[a] |
| Clc1cnccc1CC1(c2ccccc2Cl)CO1 (stereo not drawn) [XII-29] | 3.02^[a] |
| Fc1ccc(Oc2ccc(C3(Cc4cc(Cl)ncc4F)CO3)cc2)c(F)c1 (stereo not drawn) [XII-21] | 4.17^[a] |
| Fc1ccc(Oc2ccc(C3(Cc4c(Cl)cncc4Cl)CO3)cc2)c(F)c1 (racemic) [XII-52] | 4.70^[a] |
| Clc1ccc(C2(Cc3c(Cl)cncc3Cl)CO2)cc1 (racemic) [XII-57] | 4.10^[a] |
| Fc1ccc(C2(Cc3ccnc(Cl)c3)CO2)c(F)c1 (stereo not drawn) [XII-11] | 2.93^[a] |
| Clc1cc(CC2(c3ccc(-c4ccccc4)cc3)CO2)ccn1 (stereo not drawn) [XII-13] | 3.89^[a] |
| Fc1ccc(Oc2ccc(C3(Cc4cc(F)ncc4Cl)CO3)cc2)c(F)c1 (racemic) [XII-41] | 4.51^[a] |
| Fc1ccc(C2(Cc3cc(F)ncc3Cl)CO2)c(F)c1 (racemic) [XII-35] | 3.46^[a] |
| Clc1cc(CC2(c3ccc(Oc4ccccc4)cc3)CO2)ccn1 (stereo not drawn) [XII-9] | 3.37^[a] |
| Clc1ccc(C2(Cc3ccncc3Cl)CO2)cc1 (stereo not drawn) [XII-30] | 3.15^[a] |
| Fc1ccc(C2(Cc3ccncc3Cl)CO2)c(F)c1 (stereo not drawn) [XII-34] | 2.76^[a] |
| Fc1cc(CC2(c3ccc(-c4ccccc4)cc3)CO2)c(Cl)cn1 (racemic) [XII-42] | 4.64^[a] |
| Clc1ccc(C2(Cc3ccnc(Cl)c3)CO2)cc1 (stereo not drawn) [XII-15] | 3.19^[a] |
| Fc1cnccc1CC1(c2ccc(Cl)cc2)CO1 (stereo not drawn) [XII-2] | 2.65^[a] |
| Fc1ccc(C2(Cc3ccnc(Cl)c3F)CO2)c(F)c1 (racemic) [XII-47] | 3.26^[a] |
| Clc1ccc(C2(Cc3c(Cl)cncc3Cl)CO2)c(Cl)c1 (racemic) [XII-54] | 4.76^[a] |
| Clc1ccc(C2(Cc3cccnc3Cl)CO2)cc1 (stereo not drawn) [XII-24] | 3.25^[a] |
